Experimental findings from US20240307348A1, “COMPOSITION FOR PREVENTING AND TREATING MUSCLE DISEASE, IMPROVING MUSCLE FUNCTION OR ENHANCING MOTOR PERFORMANCE COMPRISING HYDRANGENOL OR HYDRANGEA EXTRACT AS ACTIVE INGREDIENT” (COSMAXBIO CO., LTD., priority 2018, published 2024) are described below.

In test [1] the test system is C2C12 cells. The experiment in a line: Change in muscle-related gene expression (qRT-PCR) upon treatment with hydrangenol or Hydrangea extract. The following applies: C2C12 cells differentiated 5 days, 1 hour or 24 hours. The test is classed as cell-based. As for the experimental part: Each sample obtained in Examples 1 and 2 was analyzed in regards to its effects on the change in gene expression involved in the gain of muscle mass and the mitochondrial biogenesis and electron transport chain (ETC). For this experiment, C2C12 cells were differentiated for 5 days and then treated with the sample of Example 1 (25 μg/ml) or Example 2 (2.5 μg/ml) for 1 hour or 24 hours, respectively. Then, Trizol was used to extract RNA from the cell, and cDNA was synthesized from the RNA (cDNA synthesis kit, Bio-Rad). Finally, a realtime PCR (qRT-PCR) was performed (Viia7, […] Biosystems) using the oligomers of Table 1 as primers.
In the experimental example, the extract of Hydrangea serrata is indicated as S; the extract of Hydrangea macrophylla as M; and hydrangenol as H. “0” means a control that was treated with vehicle.
In general terms: Quantitative PCR measures a nucleic acid by following its amplification.

Test [2] relates to C2C12 cells. The experiment in a line: Change in muscle-related protein expression (primary antibodies) upon treatment with hydrangenol or Hydrangea extract. In kind it is cell-based. The conditions noted are these: C2C12 cells differentiated 5 days; Example 1 25 ug/ml or Example 2 2.5 ug/ml; 1 hour or 24 hours; FIG. 9. Here is the method: Each sample obtained in Examples 1 and 2 was analyzed in regards to its effects on the change in protein expression involved in the prevention of muscle diseases, the improvement of muscle functions, and the promotion of motor performance. For this experiment, C2C12 cells were differentiated for 5 days and then treated with the sample of Example 1 (25 ug/ml) or Example 2 (2.5 ug/ml) for 1 hour or 24 hours, respectively. Then, the cell was broken down with a modified LIPA buffer, and 20 ug of each sample was used for analysis. The primary antibodies of p-ERK (9101S: Cell Signaling), p-mTOR (ab109268, Abcam), mTOR (2972, Cell Signaling), p-p70S6K (9234, Cell Signaling), p-AMPK (4186, Cell Signaling), PGC1a (ab54481, Abcam), and ß-actin (A5316, Sigma) were used for the analysis.

The mark [3] stands for this setting: Example 1 25 μg/ml or Example 2 2.5 μg/ml, FIG. 8.

Turning to `O=C1OC(c2ccc(O)cc2)Cc2cccc(O)c21` (centres unmarked) [Example 2, 8-hydroxy-3-(4-hydroxyphenyl)-3,4-dihydroisochromen-1-one], in test [1] (setting [3]), the “expression of Myogenin” value is “promoted”, the “gene (mRNA) expression of PPARα” value is reported as “increase”, the “gene expression of MyoD” value was “promoted” and the “gene expression of PGC1α” value was “activate”. Further, in test [1] (setting [3]), the “gene expression of PPARδ” value is “activate” and the “gene expression of SIRT1” value is reported as “increased”. Also, in test [1] (Example 2 2.5 μg/ml), the “amount of expression for most of genes shown in FIG. 8” value was “regulated”. In test [2], the “activity of p-AMPK” value is “increased”, the “phosphorylation of ERK (MAPK)” value was “through the phosphorylation of ERK”, the “phosphorylation of mTOR” value is listed as “activated” and the “protein expression of PGC1α” value is given as “increased”.
